Reference: publication PMC3380826 (2012)

Tests used:
[1] = tested on: Hum24; d(T2AG3)4 (DNA, G4) TTAGGGTTAGGGTTAGGGTTAGGG; assay: CD melting at 295 nm; conditions: 10 mM Tris-HCl, 0.1 mM EDTA, pH 7.4, pre-formed G4, 2 µM strand
[2] = tested on: Hum48; d(T2AG3)8 (DNA, G4) TTAGGGTTAGGGTTAGGGTTAGGGTTAGGGTTAGGGTTAGGGTTAGGG; assay: CD melting at 295 nm; conditions: 10 mM Tris-HCl, 0.1 mM EDTA, pH 7.4, pre-formed G4, 2 µM strand

Row | Structure (SMILES) | ΔTm ([1]; 100 mM K+, ligand:DNA 20) | ΔTm ([2]; 100 mM K+, ligand:DNA 20) | ΔTm ([1]; 100 mM K+, ligand:DNA 10) | ΔTm ([2]; 100 mM K+, ligand:DNA 10) | ΔTm ([1]; 100 mM Na+, ligand:DNA 10) | ΔTm ([2]; 100 mM Na+, ligand:DNA 10)
1 | CCOc1cc(-c2nc3ccc(N4CCN(CCO)CC4)cc3[nH]2)cc(-c2nc3ccc(N4CCN(CCO)CC4)cc3[nH]2)c1 | 5 °C | 9 °C |  |  |  | 
2 | OCCN1CCN(c2ccc3[nH]c(-c4cc(OCCOCCOCCOCCOc5cc(-c6nc7cc(N8CCN(CCO)CC8)ccc7[nH]6)cc(-c6nc7cc(N8CCN(CCO)CC8)ccc7[nH]6)c5)cc(-c5nc6cc(N7CCN(CCO)CC7)ccc6[nH]5)c4)nc3c2)CC1 |  |  | 16 °C | 16 °C |  | 
3 | OCCN1CCN(c2ccc3[nH]c(-c4cc(OCCOCCOCCOCCOCCOc5cc(-c6nc7cc(N8CCN(CCO)CC8)ccc7[nH]6)cc(-c6nc7cc(N8CCN(CCO)CC8)ccc7[nH]6)c5)cc(-c5nc6cc(N7CCN(CCO)CC7)ccc6[nH]5)c4)nc3c2)CC1 |  |  | 12 °C | 18 °C |  | 
4 | OCCN1CCN(c2ccc3[nH]c(-c4cc(OCCOCCOCCOCCOCCOCCOc5cc(-c6nc7cc(N8CCN(CCO)CC8)ccc7[nH]6)cc(-c6nc7cc(N8CCN(CCO)CC8)ccc7[nH]6)c5)cc(-c5nc6cc(N7CCN(CCO)CC7)ccc6[nH]5)c4)nc3c2)CC1 |  |  | 22 °C | 21 °C | 11 °C | 13 °C
